What was measured:
[1] = system: Plasmodium falciparum; test: Antiplasmodial activity against chloroquine and sulfadoxine-resistant and mefloquine-sensitive Plasmodium falciparum W2 infected in human erythrocytes by anti-HRP2 assay; format: functional, organism-based
[2] = Cytotoxicity against African green monkey BGM cells incubated for 18 hrs by neutral red assay; format: cell-based; conditions: chlorocebus aethiops, read-out: MLC50
[3] = Selectivity index, ratio of MLC50 for African green monkey BGM cells to IC50 for chloroquine and sulfadoxine-resistant and mefloquine-sensitive Plasmodium falciparum W2; format: toxicity, cell-based; conditions: read-out: Selectivity Index
[4] = system: Plasmodium berghei; test: Antiplasmodial activity against Plasmodium berghei NK65 infected in mouse assessed as inhibition of inhibition of parasitemia at 10 mg/kg, po treated for 3 consecutive days 24 hrs after parasite infection and measured on day 5 after inoculation by Giemsa staining based microscopy; format: functional
[5] = system: Plasmodium berghei; test: Antiplasmodial activity against Plasmodium berghei NK65 infected in mouse assessed as inhibition of inhibition of parasitemia at 10 mg/kg, po treated for 3 consecutive days 24 hrs after parasite infection and measured on day 7 after inoculation by Giemsa staining based microscopy; format: functional
[6] = system: Plasmodium berghei; test: Antiplasmodial activity against Plasmodium berghei NK65 infected in mouse assessed as inhibition of inhibition of parasitemia at 20 mg/kg, po treated for 3 consecutive days 24 hrs after parasite infection and measured on day 5 after inoculation by Giemsa staining based microscopy; format: functional
[7] = system: Plasmodium berghei; test: Antiplasmodial activity against Plasmodium berghei NK65 infected in mouse assessed as inhibition of inhibition of parasitemia at 20 mg/kg, po treated for 3 consecutive days 24 hrs after parasite infection and measured on day 7 after inoculation by Giemsa staining based microscopy; format: functional
[8] = system: Plasmodium berghei; test: Antiplasmodial activity against Plasmodium berghei NK65 infected in mouse assessed as inhibition of inhibition of parasitemia at 1 mg/kg, po treated for 3 consecutive days 24 hrs after parasite infection and measured on day 7 after inoculation by Giemsa staining based microscopy; format: functional
[9] = system: Plasmodium berghei; test: Antiplasmodial activity against Plasmodium berghei NK65 infected in mouse assessed as inhibition of inhibition of parasitemia at 1 mg/kg, po treated for 3 consecutive days 24 hrs after parasite infection and measured on day 5 after inoculation by Giemsa staining based microscopy; format: functional

| SMILES | IC50 [1] | CC50 at 18 h [2] | selectivity ratio [3] | inhibition in vivo at 10 mg/kg [4] | inhibition in vivo at 10 mg/kg [5] | inhibition in vivo at 20 mg/kg [6] | inhibition in vivo at 20 mg/kg [7] | inhibition in vivo at 1 mg/kg [8] | inhibition in vivo at 1 mg/kg [9] |
| --- | --- | --- | --- | --- | --- | --- | --- | --- | --- |
| O=S(=O)(NCCNc1ccnc2cc(Cl)ccc12)c1ccc(Cl)cc1 | 0.68 µM | 116 µM | 171 | – | – | – | – | – | – |
| O=S(=O)(NCCNc1ccnc2cc(Cl)ccc12)c1ccccc1 | 1.63 µM | 122 µM | 74.7 | – | – | – | – | – | – |
| Cc1ccc(S(=O)(=O)NCCNc2ccnc3cc(Cl)ccc23)cc1 | 0.48 µM | 125 µM | 261 | – | – | – | – | – | – |
| O=S(=O)(NCCNc1ccnc2cc(Cl)ccc12)c1ccc(Br)cc1 | 1.21 µM | 88.8 µM | 73.3 | – | – | – | – | – | – |
| O=S(=O)(NCCNc1ccnc2cc(Cl)ccc12)c1ccc(F)cc1 | 1.13 µM | 203 µM | 180 | – | – | – | – | – | – |
| O=S(=O)(NCCCNc1ccnc2cc(Cl)ccc12)c1ccccc1 | 0.35 µM | 275 µM | 784 | – | – | – | – | – | – |
| Cc1ccc(S(=O)(=O)NCCCNc2ccnc3cc(Cl)ccc23)cc1 | 0.28 µM | 95 µM | 339 | – | – | – | – | – | – |
| O=S(=O)(NCCCNc1ccnc2cc(Cl)ccc12)c1ccc(Cl)cc1 | 0.27 µM | 103 µM | 380 | – | – | – | – | – | – |
| O=S(=O)(NCCCNc1ccnc2cc(Cl)ccc12)c1ccc(Br)cc1 | 0.29 µM | 22 µM | 75.8 | – | – | – | – | – | – |
| O=S(=O)(NCCCNc1ccnc2cc(Cl)ccc12)c1ccc(F)cc1 | 0.1 µM | 339 µM | 3390 | 47% | 27% | – | – | – | – |
| O=S(=O)(NCCCCNc1ccnc2cc(Cl)ccc12)c1ccccc1 | 0.4 µM | > 257 µM | > 642 | – | – | – | – | – | – |
| O=S(=O)(NCCCCNc1ccnc2cc(Cl)ccc12)c1ccc(Cl)cc1 | 0.09 µM | 99.2 µM | 1100 | 49% | 33% | – | – | – | – |
| O=S(=O)(NCCCCNc1ccnc2cc(Cl)ccc12)c1ccc(Br)cc1 | 0.15 µM | 14.9 µM | 99.3 | – | – | – | – | – | – |
| O=S(=O)(NCCCCNc1ccnc2cc(Cl)ccc12)c1ccc(F)cc1 | 0.15 µM | 155 µM | 1030 | 30% | 7% | – | – | – | – |
| Cc1ccc(S(=O)(=O)NCCCCNc2ccnc3cc(Cl)ccc23)cc1 | 0.05 µM | 107 µM | 2490 | 27% | 0% | – | – | – | – |
| CCN(CC)CCCC(C)Nc1ccnc2cc(Cl)ccc12 (centres undefined) [CHLOROQUINE] | – | – | – | – | – | 93% | 76% | – | – |
| COc1ncnc(NS(=O)(=O)c2ccc(N)cc2)c1OC [SULFADOXINE] | > 15.5 µM | > 310 µM | – | – | – | – | – | 96% | 100% |

Source: ChEMBL document CHEMBL3600375, “Anti-Plasmodium falciparum activity of quinoline-sulfonamide hybrids” (Bioorg Med Chem, 2015)
